In PubChem BioAssay (NCI) one finds TGI data, which are given here for 25 molecules.

Common to all, as to assay: growth of human tumour cells (NCI), 48 h
Experiment [1] relates to BT-549 breast.
Experiment [2] has as its system HCT-15 colon.
For experiment [3], the system named is HL-60(TB) leukemia.
In experiment [4] the test system is HT29 colon.
The subject of experiment [5] is MOLT-4 leukemia.
Experiment [6] has as its system NCI-H23 lung.
Experiment [7] has as its system NCI-H522 lung.
For experiment [8], the system named is PC-3 prostate.
The test system of experiment [9] is SNB-75 CNS.
The subject of experiment [10] is COLO 205 colon.
Experiment [11] concerns EKVX NSCLC.

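Five compound concentrations were applied to cells in 96-well plates for 48 hours; endpoints were derived by simple linear interpolation of the resulting dose-response curve. TGI marks complete inhibition of growth.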 Where a SMILES comes first, the peptide text is derived from it. The star is where a group is joined. Boc = CC(C)(C)OC(=O)*

Turning to `COC(=O)C(Cc1c[nH]c2ccccc12)NC(=O)C(Cc1c[nH]c2ccccc12)NC(=O)C(Cc1c[nH]c2ccccc12)NC(=O)C(Cc1c[nH]c2ccccc12)NC(=O)OC(C)(C)C` (stereo unspecified) (Boc-WWWW-OMe; configuration not given here), the TGI in experiment [1] was 70.2 µM; in experiment [2] it was above 100 µM; in [3] it was 43.4 µM; in [4] it was 49 µM; in experiment [5], 20.7 µM; in experiment [6], 92.3 µM. The TGI was above 100 µM in experiment [7], 96.5 µM in experiment [8] and above 100 µM in experiment [9].
On to `Cc1cc2ccccc2n1CC(=O)N1CCCC1`, for which the TGI in experiment [1], in experiment [10], in experiment [11], in [2], in experiment [3] and in experiment [4] was above 100 µM in each case. For the same molecule, the TGI in experiment [5], in [6], in experiment [7], in experiment [8] and in experiment [9] was above 100 µM in each case.
As for `Cc1ccc(NC(=S)Nc2c(C)n(C)n(-c3ccccc3)c2=O)cc1`, the TGI in experiment [1], in experiment [10], in experiment [11], in experiment [2], in experiment [3] and in [4] was above 100 µM in each case. Further, the TGI in [5], in experiment [6], in experiment [7], in [8] and in [9] was above 100 µM each time.
With `Cc1cc(=O)n2nc(CSc3nnc(N)s3)sc2n1`, the TGI in experiment [1], in experiment [10], in experiment [11], in [2], in experiment [3] and in experiment [4] was above 100 µM throughout. The TGI in experiment [5], in experiment [6], in experiment [7], in [8] and in [9] was above 100 µM throughout.
As for `CCCn1c(=O)c2ccccc2[n+]2c(-c3ccc([N+](=O)[O-])cc3)csc12`, the TGI in [1] is above 100 µM; in [10], above 100 µM; in [11], above 100 µM; in experiment [2], above 100 µM; in [3], 57.9 µM; in experiment [4], above 100 µM. For the same molecule, the TGI in experiment [5] was 79.9 µM; in [6] it was above 100 µM; in experiment [7], 45.5 µM; in experiment [8], above 100 µM; in experiment [9], 94.6 µM.
For `CCOC(=O)C1=C(C)C(C(=O)OC)/C(=C/c2cccc3cccnc23)C1=O` (stereo unspecified), the TGI in experiment [1], in experiment [10], in experiment [11], in [2], in experiment [3] and in [4] was above 10 µM throughout. The TGI in [5], in experiment [6], in [7], in experiment [8] and in [9] was above 10 µM each time.
As for `N#Cc1c(N2CCCC2)ncn(Cc2ccccc2)c1=S`, the TGI in [1], in experiment [10], in experiment [11], in experiment [2], in experiment [3] and in experiment [4] was above 100 µM each time. Further, the TGI in experiment [5] is above 100 µM; in experiment [6], above 100 µM; in experiment [7] it was above 100 µM; in experiment [8] it was above 100 µM; in experiment [9], above 95.2 µM.
`O=C(Nc1c(Cl)cc([N+](=O)[O-])cc1Cl)C(=O)C1C(=O)NC(=S)NC1=O`: the TGI in experiment [1], in experiment [11], in experiment [2], in experiment [3], in experiment [4] and in experiment [6] was above 100 µM in each case. For the same molecule, the TGI in [7], in experiment [8] and in experiment [9] was above 100 µM in each case.
Regarding `COc1ccc(C(=C(I)c2ccccc2)c2ccc(OC)cc2)cc1`, the TGI in [1], in experiment [10], in experiment [11], in experiment [2], in experiment [3] and in [4] was above 100 µM each time. Further, the TGI in experiment [5], in experiment [6], in [7] and in experiment [8] was above 100 µM each time.
As to `C[C@H](CC[C@@H](O)C(C)(C)O)[C@H]1CC[C@@]2(C)[C@@H]3CC=C4[C@@H](CC[C@H](O)C4(C)C)[C@]3(C)C(=O)C[C@]12C`, the TGI in [1] was above 50 µM; in [10] it was 31.8 µM; in experiment [11], above 50 µM; in [2] it was above 50 µM; in experiment [3], above 50 µM; in [4] it was above 50 µM. The TGI in [5] is above 50 µM; in experiment [6], above 50 µM; in [7], above 50 µM; in [8], 45.4 µM.
As to `Cc1ccc(S(=O)(=O)NC(=O)NCCC(=O)O)cc1`, the TGI in [1], in experiment [10], in experiment [2], in experiment [3], in [4] and in experiment [5] was above 100 µM throughout. Besides, the TGI in [6], in [7], in [8] and in experiment [9] was above 100 µM in each case.
With `CO/C(=N\N=C\c1ccc(Cl)cc1Cl)c1ccncc1`, the TGI in experiment [1], in experiment [10], in [11], in experiment [2], in experiment [3] and in [4] was above 10 µM in each case. For the same molecule, the TGI in experiment [5], in experiment [6], in experiment [7] and in experiment [8] was above 10 µM throughout.
For the molecule `Cn1c(-c2ccc[se]2)ccc1-c1ccc(CO)[se]1`, the TGI in experiment [1] was above 100 µM; in [10], 6.01 µM; in experiment [11], above 100 µM; in [2], above 63.8 µM; in [3], above 100 µM; in experiment [5], 98.2 µM. For the same molecule, the TGI was above 84.3 µM in experiment [6], above 100 µM in experiment [7], above 100 µM in experiment [8] and above 79.9 µM in experiment [9].
On to `OCC(Cn1cncn1)(c1ccc(F)cc1F)n1cncn1` (stereo unspecified), for which the TGI in [1], in experiment [10], in experiment [2], in experiment [3], in [4] and in experiment [5] was above 100 µM in each case. The TGI in [6], in experiment [7], in experiment [8] and in [9] was above 100 µM in each case.
As to `COc1ccc(-c2nc(-c3cc4ccccc4oc3=O)cs2)cc1`, the TGI in experiment [1], in experiment [10], in experiment [11], in experiment [2], in experiment [3] and in experiment [4] was above 100 µM throughout. Moreover, the TGI in experiment [5], in [7], in [8] and in experiment [9] was above 100 µM in each case.
Take `COc1ccc(/C=C(\C(=C/c2ccc(OC)cc2)[N+](=O)[O-])[N+](=O)[O-])cc1`: the TGI was 21.4 µM in experiment [1]; 21.6 µM in experiment [10]; 29.8 µM in experiment [11]; 6.18 µM in [2]; 11.1 µM in experiment [4]; above 70.4 µM in [5]. Also, the TGI was 16 µM in experiment [6], 8.8 µM in experiment [7], above 39.7 µM in [8] and 68.6 µM in [9].
For the molecule `C1#Cc2ccccc2OCCOc2ccccc2C#Cc2ccccc2OCCOc2ccccc21`, the TGI in [1] was 81.9 µM; in [10], above 100 µM; in experiment [11], 98.9 µM; in [2], above 100 µM; in experiment [3], above 100 µM; in experiment [4] it was above 100 µM. Further, the TGI in experiment [5] is 31.3 µM; in experiment [6] it was 34.8 µM; in experiment [7] it was 49.8 µM; in [8], above 100 µM.
For the molecule `CC(=O)NC1C(OCc2ccccc2)OC(CO)C(O)C1OCC(=O)NC(C)C(=O)NC(CCC(=O)NCCCCCNc1c2ccccc2nc2cccc([N+](=O)[O-])c12)C(N)=O` (stereo unspecified), the TGI is below 0.0001 µM in experiment [1]; below 0.0001 µM in experiment [10]; below 0.0001 µM in [2]; 0.0455 µM in experiment [3]; below 0.0001 µM in experiment [4]; 0.0045 µM in [7]. The TGI was below 0.0001 µM in experiment [8] and 0.00164 µM in experiment [9].
Consider `Cc1cn(CC2=NCCCN2)c(=O)[nH]c1=O`, for which the TGI in experiment [1], in [10], in experiment [11], in [2], in experiment [4] and in experiment [5] was above 100 µM in each case. Besides, the TGI in experiment [6], in experiment [7], in experiment [8] and in experiment [9] was above 100 µM throughout.
`O=C(/C=C/c1ccc(-c2ccccc2)cc1)NCc1ccc(C(=O)NCCc2c[nH]c3ccccc23)cc1`: the TGI was above 100 µM in [1]; above 100 µM in [10]; 94.8 µM in experiment [11]; above 100 µM in experiment [2]; 29.3 µM in experiment [4]; 38.8 µM in experiment [5]. Further, the TGI is above 100 µM in experiment [6], above 100 µM in experiment [7], above 100 µM in experiment [8] and 42.8 µM in experiment [9].
On to `CC(C)(C)n1c(=O)n(C(=O)C(Cl)(Cl)Cl)n(C(=O)C(Cl)(Cl)Cl)c1=O`, for which the TGI in [1], in experiment [10], in experiment [11], in [2], in experiment [3] and in experiment [4] was above 100 µM throughout. The TGI in [5], in [6], in [7] and in experiment [8] was above 100 µM each time.
Consider `CCCC(CC)c1c(O)c(O)c(C(CC)CCC)c(C(CC)CCC)c1C(CC)CCC` (stereo unspecified), for which the TGI in [1], in experiment [10], in experiment [11], in experiment [2], in [3] and in experiment [4] was above 10 µM throughout. Also, the TGI in experiment [6], in experiment [7] and in experiment [8] was above 10 µM throughout.
`CC(C)[C@H]1NC(=O)[C@H]2N=C(O[C@@H]2C)[C@@H]2CCCN2C(=O)[C@H](Cc2ccccc2)NC(=O)[C@@H]2CSC(=N2)[C@@H](Cc2ccccc2)NC(=O)[C@@H]2CSC1=N2`: the TGI in [1], in [10], in experiment [11], in experiment [2], in experiment [3] and in experiment [4] was above 100 µM each time. In addition, the TGI in experiment [5], in [6], in experiment [7] and in [8] was above 100 µM in each case.
Turning to `O=c1[nH]c2ccccc2nc1/C=C(\O)C(F)F`, the TGI in experiment [1], in experiment [10], in experiment [11], in experiment [2], in experiment [3] and in experiment [4] was above 100 µM in each case. Moreover, the TGI in experiment [5], in experiment [6], in [7] and in experiment [8] was above 100 µM throughout.
Consider `COC(=O)/C=C\C(C#N)(C#N)N=Cc1ccc(C)s1`, for which the TGI in [1] came to 12.2 µM; in experiment [10], 2.93 µM; in experiment [11], 15.3 µM; in experiment [2], 3.66 µM; in [3], 5.16 µM; in [5], 5.82 µM. Further, the TGI in [6] amounted to 6.69 µM; in experiment [7], 2.01 µM; in experiment [8], 6.72 µM; in experiment [9], 19.9 µM.
